Laboratory results taken from publication PMC10881971, “Hepa-ToxMOA: a pathway-screening method for evaluating cellular stress and hepatic metabolic-dependent toxicity of natural products” (Scientific Reports, 2024).

How the values were obtained:
liver fibrosis = system: liver fibrosis; parameters: method as in PMID 30502394; conditions: cited from earlier work
diabetic mice = system: diabetic mice; parameters: method as in PMID 34678724; conditions: cited from earlier work
[1] = system: AP1, P53, Nrf2, and NF-κB; conditions: for Toxic (natural products exceeding Score 3, Venn diagram list Fig. 3c): human
[2] = system: diabetic C57BL/KsJ-db/db mice; parameters: method as in PMID 29554661; conditions: cited from earlier work
CYP2C19 = system: CYP2C19; parameters: method as in PMID 25815638; conditions: causing mitochondrial dysfunction and hepatotoxicity; cited from earlier work
[3] = system: Hepa-ToxMOA cell lines (HepG2); conditions: four Hepa-ToxMOA cell lines, increasing CPPA concentration (6.25, 12.5, 25 μM), 1% S9 treatment, 24 h
NF-κB = NF-κB cell line, CPPA 6.25, 12.5, 25 μM, 24 h, S9 fraction (Fig. 2b)
AP1 = AP1 cell line, CPPA 6.25, 12.5, 25 μM, 24 h, S9 fraction (Fig. 2b)
CYP3A4 [4] = conditions: cited from earlier work
CYP3A = system: CYP3A; parameters: method as in PMID 30778299; conditions: cited from earlier work
CYP3A5 = system: CYP3A5; parameters: method as in doi:10.1016/j.ccr.2020.213600; conditions: cited from earlier work
CYP3A4 [5] = system: CYP3A4; parameters: method as in PMID 20959500; conditions: via the activation of NR1I2; cited from earlier work

## CC(C)=CCc1c(O)cc2oc3cc(O)c(O)c(CC=C(C)C)c3c(=O)c2c1O [Gamma-mangostin]
Liver fibrosis
  effect on liver fibrosis: alleviate liver fibrosis
Diabetic mice
  fasting blood glucose levels: attenuate fasting blood glucose levels

## CC(C)=CC[C@H](O)C1=CC(=O)c2c(O)ccc(O)c2C1=O [Alkannin]
[1]
  sum of activity scores compared between metabolic activation and non-metabolic conditions: more active without metabolic activation
  toxicity in Hepa-ToxMOA cell lines under metabolic activity conditions: reduced toxicity
  Toxic (natural products exceeding Score 3, Venn diagram list Fig. 3c): S9- only
[2]
  effect on liver injury: hepatoprotective effects

## O=C(O)c1cc(O)c2c(c1)C(=O)c1cccc(O)c1C2=O [Rhein]
CYP2C19
  metabolic activation by CYP2C19: metabolically activated by CYP2C19

## O=P1(N(CCCl)CCCl)NCCCO1 (stereo not drawn) [CPPA, cyclophosphamide, reference compound]
[3]
  cell viability: significantly reduced
Nrf2
  GFP intensity: increased in a dose-dependent manner
[1]
  GFP intensity with S9 fractions compared to without S9 fractions: higher
NF-κB
  GFP intensity: increased in a dose-dependent manner
AP1
  GFP intensity: increased in a dose-dependent manner
P53
  GFP intensity: tendency to increase, although not in a dose-dependent manner

## CC(=O)O[C@H]1C[C@]2(O)[C@@H]3CC[C@@H]4C[C@@H](O)CC[C@]4(C)[C@H]3CC[C@]2(C)[C@H]1c1ccc(=O)oc1 [Bufotalin]
CYP3A4 [4]
  substrate of CYP3A4: substrates
CYP3A
  metabolism by CYP3A: metabolized by CYP3A to 5ß-hydroxy-bufotalin
[1]
  active (increased GFP intensity) for all Hepa-ToxMOA cell lines (Fig. 3d): commonly active
  sum of activity scores compared between metabolic activation and non-metabolic conditions: more active without metabolic activation
  Toxic (natural products exceeding Score 3, Venn diagram list Fig. 3c): S9- only
CYP3A5
  substrate of CYP3A5: substrates

## CC[C@]1(O)C[C@@H]2CN(CCc3c([nH]c4ccccc34)[C@@](C(=O)OC)(c3cc4c(cc3OC)N(C)[C@H]3[C@@](O)(C(=O)OC)[C@H](OC(C)=O)[C@]5(CC)C=CCN6CC[C@]43[C@@H]65)C2)C1 [vinblastine, reference compound]
CYP3A4 [4]
  substrate of CYP3A4: substrate
CYP3A4 [5]
  induction of CYP3A4: induce CYP3A4
